Values after ≈ are worked out from the molar mass of the structure shown.
What was measured:
Type in all cases: functional
Bacillus subtilis = experiment: Antibacterial activity against Bacillus subtilis after 24 hrs by MTT colorimetric method
Staphylococcus aureus = experiment: Antibacterial activity against Staphylococcus aureus after 24 hrs by MTT colorimetric method
Pseudomonas fluorescens = experiment: Antibacterial activity against Pseudomonas fluorescens after 24 hrs by MTT colorimetric method
Trichophyton rubrum = experiment: Antifungal activity against Trichophyton rubrum after 48 hrs by MTT colorimetric method
Escherichia coli = experiment: Antibacterial activity against Escherichia coli after 24 hrs by MTT colorimetric method
Candida albicans = experiment: Antifungal activity against Candida albicans after 48 hrs by MTT colorimetric method
Aspergillus niger = experiment: Antifungal activity against Aspergillus niger after 48 hrs by MTT colorimetric method

Row | SMILES | MIC (Bacillus subtilis) | MIC (Staphylococcus aureus) | MIC (Pseudomonas fluorescens) | MIC (Trichophyton rubrum) | MIC (Escherichia coli) | MIC (Candida albicans) | MIC (Aspergillus niger)
1 | CC(=O)N1CCN(c2ccc(OC[C@H]3CO[C@](Cn4ccnc4)(c4ccc(Cl)cc4Cl)O3)cc2)CC1 [KETOCONAZOLE] | > 50 µg/mL | > 50 µg/mL | > 50 µg/mL | 3.9 µg/mL (≈ 7.34 µM) | > 50 µg/mL | 3.9 µg/mL (≈ 7.34 µM) | 7.8 µg/mL (≈ 14.7 µM)
2 | NC[C@H]1O[C@H](O[C@H]2[C@H](O)[C@@H](O[C@H]3O[C@H](CO)[C@@H](O)[C@H](N)[C@H]3O)[C@H](N)C[C@@H]2N)[C@H](O)[C@@H](O)[C@@H]1O [KANAMYCIN] | 0.39 µg/mL (≈ 0.805 µM) | 1 µg/mL (≈ 2.06 µM) | 3.9 µg/mL (≈ 8.05 µM) | > 50 µg/mL | 3.9 µg/mL (≈ 8.05 µM) | > 50 µg/mL | > 50 µg/mL
3 | CC1(/N=C/c2cc(Cl)ccc2O)CCC(C(C)(C)/N=C/c2cc(Cl)ccc2O)CC1 (stereo unspecified) | > 50 µg/mL | > 50 µg/mL | > 50 µg/mL | > 50 µg/mL | > 50 µg/mL | > 50 µg/mL | > 50 µg/mL
4 | Oc1ccc(Cl)cc1/C=N/Cc1cccnc1 | > 50 µg/mL | 19.5 µg/mL (≈ 79 µM) | 12.5 µg/mL (≈ 50.7 µM) | > 50 µg/mL | > 50 µg/mL | > 50 µg/mL | > 50 µg/mL
5 | Oc1ccc(Cl)cc1/C=N/CCCCCC/N=C/c1cc(Cl)ccc1O | > 50 µg/mL | > 50 µg/mL | > 50 µg/mL | > 50 µg/mL | > 50 µg/mL | > 50 µg/mL | > 50 µg/mL
6 | OCC/N=C/c1cc(Cl)ccc1O | > 50 µg/mL | 15.5 µg/mL (≈ 77.6 µM) | > 50 µg/mL | > 50 µg/mL | > 50 µg/mL | 12.5 µg/mL (≈ 62.6 µM) | > 50 µg/mL
7 | Oc1ccc(Cl)cc1/C=N/C1CCN(Cc2ccccc2)CC1 | > 50 µg/mL | > 50 µg/mL | > 50 µg/mL | > 50 µg/mL | > 50 µg/mL | > 50 µg/mL | > 50 µg/mL
8 | Oc1ccc(Cl)cc1/C=N/C1CCCC1 | > 50 µg/mL | > 50 µg/mL | 3.4 µg/mL (≈ 15.2 µM) | > 50 µg/mL | 4.1 µg/mL (≈ 18.3 µM) | > 50 µg/mL | > 50 µg/mL
9 | Oc1ccc(Cl)cc1/C=N/CC1CCCC(C/N=C/c2cc(Cl)ccc2O)C1 (stereo unspecified) | > 50 µg/mL | > 50 µg/mL | > 50 µg/mL | > 50 µg/mL | > 50 µg/mL | > 50 µg/mL | > 50 µg/mL
10 | Oc1ccc(Cl)cc1/C=N/CCNCC/N=C/c1cc(Cl)ccc1O | > 50 µg/mL | > 50 µg/mL | 32.5 µg/mL (≈ 85.5 µM) | > 50 µg/mL | > 50 µg/mL | > 50 µg/mL | > 50 µg/mL
11 | Oc1ccc(Cl)cc1/C=N/C1CCCCC1 | > 50 µg/mL | 25 µg/mL (≈ 105 µM) | 12.5 µg/mL (≈ 52.6 µM) | > 50 µg/mL | 48.6 µg/mL (≈ 204 µM) | > 50 µg/mL | > 50 µg/mL

The remaining lines, values ahead:

Row | MIC (Bacillus subtilis) | MIC (Staphylococcus aureus) | MIC (Pseudomonas fluorescens) | MIC (Trichophyton rubrum) | MIC (Escherichia coli) | MIC (Candida albicans) | MIC (Aspergillus niger) | SMILES
12 | > 50 µg/mL | > 50 µg/mL | 2.8 µg/mL (≈ 8.3 µM) | > 50 µg/mL | > 50 µg/mL | > 50 µg/mL | > 50 µg/mL | Oc1ccc(Cl)cc1/C=N/CC/N=C/c1cc(Cl)ccc1O
13 | > 50 µg/mL | > 50 µg/mL | > 50 µg/mL | > 50 µg/mL | > 50 µg/mL | > 50 µg/mL | > 50 µg/mL | CN(C)CCC/N=C/c1cc(Cl)ccc1O
14 | 49.8 µg/mL (≈ 211 µM) | > 50 µg/mL | 5.2 µg/mL (≈ 22.1 µM) | > 50 µg/mL | 5.7 µg/mL (≈ 24.2 µM) | > 50 µg/mL | > 50 µg/mL | Oc1ccc(Cl)cc1/C=N/Cc1ccco1
15 | > 50 µg/mL | > 50 µg/mL | 40.5 µg/mL (≈ 137 µM) | > 50 µg/mL | > 50 µg/mL | > 50 µg/mL | > 50 µg/mL | CC1(C)CC(/N=C/c2cc(Cl)ccc2O)CC(C)(C)N1
16 | > 50 µg/mL | > 50 µg/mL | > 50 µg/mL | > 50 µg/mL | > 50 µg/mL | > 50 µg/mL | > 50 µg/mL | CCN(CC)CCC/N=C/c1cc(Cl)ccc1O
17 | > 50 µg/mL | > 50 µg/mL | 3.2 µg/mL (≈ 13 µM) | > 50 µg/mL | 3.1 µg/mL (≈ 12.6 µM) | > 50 µg/mL | > 50 µg/mL | Oc1ccc(Cl)cc1/C=N/Cc1ccccc1
18 | > 50 µg/mL | > 50 µg/mL | > 50 µg/mL | > 50 µg/mL | > 50 µg/mL | > 50 µg/mL | > 50 µg/mL | CN(CCC/N=C/c1cc(Cl)ccc1O)CCC/N=C/c1cc(Cl)ccc1O
19 | > 50 µg/mL | 18.5 µg/mL (≈ 66.9 µM) | > 50 µg/mL | > 50 µg/mL | > 50 µg/mL | > 50 µg/mL | > 50 µg/mL | O=[N+]([O-])c1ccc(/N=C/c2cc(Cl)ccc2O)cc1
20 | > 50 µg/mL | 18.5 µg/mL (≈ 65.4 µM) | > 50 µg/mL | > 50 µg/mL | > 50 µg/mL | > 50 µg/mL | > 50 µg/mL | Oc1ccc(Cl)cc1/C=N/CCCN1CCOCC1
21 | > 50 µg/mL | > 50 µg/mL | > 50 µg/mL | > 50 µg/mL | > 50 µg/mL | > 50 µg/mL | > 50 µg/mL | CCOC(=O)N1CCC(/N=C/c2cc(Cl)ccc2O)CC1
22 | > 50 µg/mL | 22.5 µg/mL (≈ 84 µM) | > 50 µg/mL | > 50 µg/mL | > 50 µg/mL | > 50 µg/mL | > 50 µg/mL | Oc1ccc(Cl)cc1/C=N/CCN1CCNCC1
23 | > 50 µg/mL | > 50 µg/mL | > 50 µg/mL | > 50 µg/mL | > 50 µg/mL | > 50 µg/mL | > 50 µg/mL | Oc1ccc(Cl)cc1/C=N/CC1CCCCC1
24 | 45.2 µg/mL (≈ 171 µM) | 3.4 µg/mL (≈ 12.9 µM) | 2.8 µg/mL (≈ 10.6 µM) | > 50 µg/mL | 1.6 µg/mL (≈ 6.07 µM) | > 50 µg/mL | 47.5 µg/mL (≈ 180 µM) | Oc1ccc(Cl)cc1/C=N/Cc1ccc(F)cc1
25 | > 50 µg/mL | > 50 µg/mL | 4.5 µg/mL (≈ 12.8 µM) | > 50 µg/mL | 5 µg/mL (≈ 14.2 µM) | > 50 µg/mL | > 50 µg/mL | Oc1ccc(Cl)cc1/C=N/CCC/N=C/c1cc(Cl)ccc1O
26 | > 50 µg/mL | > 50 µg/mL | 2.5 µg/mL (≈ 9.3 µM) | > 50 µg/mL | 3.5 µg/mL (≈ 13 µM) | > 50 µg/mL | > 50 µg/mL | Oc1ccc(Cl)cc1/C=N/CCN1CCOCC1
27 | 1.8 µg/mL (≈ 5.12 µM) | > 50 µg/mL | 3.6 µg/mL (≈ 10.2 µM) | > 50 µg/mL | 4.9 µg/mL (≈ 14 µM) | > 50 µg/mL | > 50 µg/mL | CC(C/N=C/c1cc(Cl)ccc1O)/N=C/c1cc(Cl)ccc1O (stereo unspecified)
28 | 48.5 µg/mL (≈ 176 µM) | 1.8 µg/mL (≈ 6.53 µM) | 3.1 µg/mL (≈ 11.2 µM) | > 50 µg/mL | > 50 µg/mL | > 50 µg/mL | > 50 µg/mL | Oc1ccc(CC/N=C/c2cc(Cl)ccc2O)cc1

Reference: ChEMBL document CHEMBL1144592, “Synthesis and antimicrobial activities of Schiff bases derived from 5-chloro-salicylaldehyde” (2007)
